Like-named read-outs stand apart in the source and are kept apart here.
Assays:
Assay type in all cases: cell-based, human
[1] = system: senescent IMR90 ER:RAS cells (4-OHT-induced); assay: Nuclei count (Hoechst, high content imaging) senolytic assay, oncogene-induced senescence (OIS) model, senescent cells; conditions: Homo sapiens
Text: To test for senolytic activity, we compared the effect of each compound on the total cell number (automated high content image-based analysis of total number of nuclei per well) in non-senescent and senescent IMR90 ER:RAS cultures treated with the top hits from the computational screen (Figs. 2e and 3a–d and Supplementary Fig. 4a–c). The drop in cell number compared to untreated controls is indicated by the nuclei count and reflects cell death[13],[15]. As positive control, we employed ouabain, a cardiac glycoside with well characterised senolytic activity.
We performed experimental validation of the compounds with z-score > 8 (Fig. 2e). […] We employed two cellular models of senescence: one of OIS and a second one of TIS. For the OIS case, we utilised IMR90 ER:RAS cells with 4-OHT at 100 nM. […] For the TIS model, we used A549 cells with etoposide at 100 μM. The exposure of the cells to etoposide lasted 48 h, after which period the cells were cultivated for a further three days with normal media.
IMR90 (CCL-186) human foetal lung fibroblasts and A549 (CCL-185) human lung adenocarcinoma cells were obtained from the American Type Culture Collection (ATCC, Manassas, VA). The cell lines were confirmed to be mycoplasma negative (Lonza MycoAlert, cat #LT07-118). IMR90 ER:RAS is a derivative of IMR90 cells expressing a switchable version of oncogenic H-Ras[84]. IMR90 ER:RAS and A549 cells were maintained in Dulbecco’s Modified Eagle Medium (DMEM, ThermoFisher) supplemented with foetal bovine serum (10%), L-glutamine (2 mM, ThermoFisher), and antibiotic-antimycotic solution (1%, ThermoFisher) and incubated under standard tissue culture conditions (37 °C and 5% CO2). For induction of the senescent phenotype, IMR90-ER:RAS cells were cultured in hydroxytamoxifen (4-OHT) (Sigma) added media at 100 nM final concentration. IMR90 were kept in culture for over 27 passages for replicative senescence. Cells were tested for mycoplasma on a regular basis.
Cells were seeded (50 μL per well) into 384-well plates (IMR90 ER:RAS cells in Nunc Optical Bottom Polybase Microplates [#142761, Thermo Scientific, Rochester, NY] and A549 cells in CELLSTAR Cell Culture Microplates [#781091, Greiner Bio-One, Kremsmünster, Austria]). Cells were incubated under standard tissue culture conditions for 24 h before the addition of compounds. Passage 14 IMR90 ER:RAS cells were seeded at 1300 cells per well in the control condition, and at 1600 cells per well in the senescent case. Passage 34 A549 cells were seeded at 7000 cells per well in the control condition, and at 10,000 cells per well in the senescent case.
Dose response plates were prepared with a DMSO control and a 10-point […] concentration range, and added to the compounds using a D300e digital dispenser (Tecan Trading AG, Switzerland) at a final concentration of between 10 μM and 10 nM. Every screened condition was carried out in triplicate. After 72 h of incubation with exposure to the compounds, cells were fixed by the addition of an equal volume of formaldehyde (8%, 50 μL; #BP531-500, Fisher Bioreagents, Fisher Scientific, Loughborough, Leicestershire) to the existing media, incubated at room temperature (30 min), and washed three times in phosphate-buffered saline (PBS). Cells were then permeabilised in Triton-X100 (0.1%, 50 μL) and incubated at room temperature (30 min) followed by three more washes with PBS.
Cells were stained with Hoechst 33342 for nuclei count (excitation/emission wavelength at 387/447 […], DAPI channel, original concentration at 10 mg/ml, final concentration at 2 μg/ml; H1399, Molecular Probes, Eugene, OR). The staining solution was prepared in bovine serum albumin solution (10%). The staining solution was added to each well (30 μL) and incubated in the dark at room temperature (30 min), followed by three washes with PBS and no final aspiration. Plates were foil sealed.

[2] = system: senescent A549 cells (etoposide-induced); assay: Nuclei count senolytic assay, therapy-induced senescence (TIS) model, senescent cells; conditions: Homo sapiens, A549, Senescent cells, mean, read-out: Mean % Cell Survival
Outline: (§1)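 Senescence in A549 cells is induced by 48 h of 100 μM etoposide followed by three days without drug, alongside non-senescent controls. Cells are seeded, rested 24 h, then exposed 72 h to compounds (10 nM–10 μM final, […] steps, triplicate) before nuclei are counted by imaging.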

[3] = system: non-senescent control A549 cells; assay: Nuclei count senolytic assay, TIS model, non-senescent control cells; conditions: Homo sapiens, A549, Control cells, mean, read-out: Mean % Cell Survival
Outline: as §1

Compound `CO[C@H]1C[C@@H]2CC[C@@H](C)[C@@](O)(O2)C(=O)C(=O)N2CCCC[C@H]2C(=O)O[C@H]([C@H](C)C[C@@H]2CC[C@@H](OCCO)[C@H](OC)C2)CC(=O)[C@H](C)/C=C(\C)[C@@H](O)[C@@H](OC)C(=O)[C@H](C)C[C@H](C)/C=C/C=C/C=C/1C` [Everolimus, everolimus, reference compound] has a viability at 10 µM ([1]; IMR-90, 72 h, Senescent, log (dose) [M] -5, 72 h, mean n=3 (Fig 3C), read-out: Mean % Cell Survival) of 82.2%, a viability at 4.677 µM ([1]; IMR-90, 72 h, Senescent, log (dose) [M] -5.33, 72 h, mean n=3 (Fig 3C), read-out: Mean % Cell Survival) of 80% and a viability at 2.188 µM ([1]; IMR-90, 72 h, Senescent, log (dose) [M] -5.66, 72 h, mean n=3 (Fig 3C), read-out: Mean % Cell Survival) of 87.3%. The viability at 1 µM ([1]; IMR-90, 72 h, Senescent, log (dose) [M] -6, 72 h, mean n=3 (Fig 3C), read-out: Mean % Cell Survival) was 92.8%, the viability at 0.4677 µM ([1]; IMR-90, 72 h, Senescent, log (dose) [M] -6.33, 72 h, mean n=3 (Fig 3C), read-out: Mean % Cell Survival) was 92.3% and the viability at 0.2188 µM ([1]; IMR-90, 72 h, Senescent, log (dose) [M] -6.66, 72 h, mean n=3 (Fig 3C), read-out: Mean % Cell Survival) was 92.6%. It also gave a viability at 0.1 µM ([1]; IMR-90, 72 h, Senescent, log (dose) [M] -7, 72 h, mean n=3 (Fig 3C), read-out: Mean % Cell Survival) of 93.7%, a viability at 0.04677 µM ([1]; IMR-90, 72 h, Senescent, log (dose) [M] -7.33, 72 h, mean n=3 (Fig 3C), read-out: Mean % Cell Survival) of 88.2% and a viability at 0.02188 µM ([1]; IMR-90, 72 h, Senescent, log (dose) [M] -7.66, 72 h, mean n=3 (Fig 3C), read-out: Mean % Cell Survival) of 90.5%. It also gave a viability at 0.01 µM ([1]; IMR-90, 72 h, Senescent, log (dose) [M] -8, 72 h, mean n=3 (Fig 3C), read-out: Mean % Cell Survival) of 93.7%, a viability at 10 µM ([1]; IMR-90, Senescent, log (dose) [M] -5, read-out: % Cell Survival) of 67.8% and a viability at 4.677 µM ([1]; IMR-90, Senescent, log (dose) [M] -5.33, read-out: % Cell Survival) of 92.4%. The viability at 2.188 µM ([1]; IMR-90, Senescent, log (dose) [M] -5.66, read-out: % Cell Survival) was 80%, the viability at 0.2188 µM ([1]; IMR-90, Senescent, log (dose) [M] -6.66, read-out: % Cell Survival) was 80.7% and the viability at 0.1 µM ([1]; IMR-90, Senescent, log (dose) [M] -7, read-out: % Cell Survival) was 80.3%. The viability at 10 µM ([2]; log (dose) [M] -5) was 71.7%, the viability at 4.68 µM ([2]; log (dose) [M] -5.33) was 84.3% and the viability at 2.19 µM ([2]; log (dose) [M] -5.66) was 79.6%. It also gave a viability at 1 µM ([2]; log (dose) [M] -6) of 66.9%, a viability at 0.468 µM ([2]; log (dose) [M] -6.33) of 72.1% and a viability at 0.219 µM ([2]; log (dose) [M] -6.66) of 74.4%. For the same compound, the viability at 0.1 µM ([2]; log (dose) [M] -7) was 76.2%, the viability at 0.0468 µM ([2]; log (dose) [M] -7.33) was 85.6% and the viability at 0.0219 µM ([2]; log (dose) [M] -7.66) was 95%. The viability at 0.01 µM ([2]; log (dose) [M] -8) was 94.7%, the viability at 10 µM ([3]; log (dose) [M] -5) was 106% and the viability at 4.68 µM ([3]; log (dose) [M] -5.33) was 103%. The viability at 2.19 µM ([3]; log (dose) [M] -5.66) was 103%, the viability at 1 µM ([3]; log (dose) [M] -6) was 102% and the viability at 0.468 µM ([3]; log (dose) [M] -6.33) was 67.5%. It also gave a viability at 0.219 µM ([3]; log (dose) [M] -6.66) of 103%, a viability at 0.1 µM ([3]; log (dose) [M] -7) of 102% and a viability at 0.0468 µM ([3]; log (dose) [M] -7.33) of 106%. It also gave a viability at 0.0219 µM ([3]; log (dose) [M] -7.66) of 105% and a viability at 0.01 µM ([3]; log (dose) [M] -8) of 108%.

Source: paper PMC10257182, “Discovery of senolytics using machine learning” (Nature Communications, 2023)
